The source of these data is ChEMBL document CHEMBL1201862, “PubChem BioAssay data set” (2004).

Some test systems named below: OVCAR-4; NCI-H522; SF-268; SK-OV-3; COLO 205; A549; HCT-116; CCRF-CEM; U-251; HOP-62; MOLT-4; RXF 393; CAKI-1; IGROV-1; NCI/ADR-RES; SNB-75; KM12; NCI-H23; MDA-MB-231; DU-145.
What all share (experiment): NCI anticancer screen, dose series, 48 h

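Test compounds were applied to cells in 96-well plates for 48 hours at 5 doses. GI50 is the concentration that inhibits growth by half.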 Calls of active or inactive are those of the source. Rule as the data show it: active = GI50 up to about 1.1 µM and inactive = higher. Bounds are passed on as bounds.

With `COc1cc(C2c3cc4c(cc3[C@@H](Nc3ccc(N5CCOCC5)cc3)C3COC(=O)[C@H]23)OCO4)cc(OC)c1O` (stereo partly specified), the GI50 in the assay on OVCAR-4 is 9.84 µM (inactive); with NCI-H522, 1.41 µM (inactive); with SF-268 it was 1.07 µM (active); with SK-OV-3, 0.738 µM (active); in the assay with COLO 205, 2 µM (inactive); in the assay with A549 it was 0.0659 µM (active). Also, the GI50 was 1.25 µM (inactive) in the assay on HCT-116; 0.136 µM (active) in the assay on CCRF-CEM; 0.214 µM (active) in the assay with U-251; 0.274 µM (active) in the assay with HOP-62; 0.0207 µM (active) in the assay with MOLT-4; 2.3 µM (inactive) with RXF 393. Further, the GI50 in the assay on CAKI-1 was 0.4 µM (active); in the assay with IGROV-1 it was 4.01 µM (inactive); in the assay with NCI/ADR-RES, 3.96 µM (inactive); in the assay with SNB-75 it was 5.19 µM (inactive).

`COc1cc(C2c3cc4c(cc3[C@@H](Nc3cccc(C(C)=O)c3)C3COC(=O)[C@H]23)OCO4)cc(OC)c1O` (stereo partly specified): the GI50 with KM12 was 1.59 µM (inactive); in the assay with OVCAR-4 it was 6.17 µM (inactive); in the assay on NCI-H522, 1.39 µM (inactive); with SF-268, 0.577 µM (active); in the assay on SK-OV-3 it was 0.71 µM (active); with COLO 205, 1.86 µM (inactive). The GI50 in the assay with A549 is < 0.0184 µM (active); with HCT-116 it was 0.664 µM (active); in the assay with CCRF-CEM it was 0.0349 µM (active); in the assay on U-251, 0.245 µM (active); with HOP-62, 0.122 µM (active); in the assay on NCI-H23, 0.264 µM (active). Besides, the GI50 in the assay with MOLT-4 was < 0.01 µM (active); in the assay on RXF 393, 0.762 µM (active); in the assay with CAKI-1, 0.108 µM (active); in the assay with IGROV-1, 3.03 µM (inactive); in the assay on NCI/ADR-RES, 0.383 µM (active); with SNB-75, 0.838 µM (active).

Take `CCCCCCCCCCCC1=C(O)C(=O)C=C(O)C1=O` [EMBELIN]: the GI50 is 6.38 µM (inactive) in the assay with KM12; 10 µM (inactive) in the assay on OVCAR-4; 8.95 µM (inactive) with NCI-H522; 3.92 µM (inactive) in the assay with SF-268; 8.43 µM (inactive) in the assay on SK-OV-3; 7.5 µM (inactive) in the assay on COLO 205. Also, the GI50 was 4.36 µM (inactive) with A549; 9.2 µM (inactive) in the assay with HCT-116; 4.27 µM (inactive) in the assay on CCRF-CEM; 5.02 µM (inactive) in the assay with U-251; 5.56 µM (inactive) in the assay with HOP-62; 7.05 µM (inactive) with NCI-H23. Moreover, the GI50 in the assay with MOLT-4 was 6.35 µM (inactive); in the assay with RXF 393, 12.9 µM (inactive); with CAKI-1, 4.26 µM (inactive); in the assay with IGROV-1 it was 6.76 µM (inactive); in the assay on NCI/ADR-RES it was 6.27 µM (inactive); in the assay on SNB-75, 6.31 µM (inactive).

In the case of `N/C(=N\O)N/N=C\c1cc([N+](=O)[O-])cc([N+](=O)[O-])c1O`, the GI50 with KM12 is 2.94 µM (inactive); in the assay with OVCAR-4, > 96.2 µM (inactive); in the assay with NCI-H522, 12.5 µM (inactive); in the assay on SF-268, 62.1 µM (inactive); in the assay on SK-OV-3, 25.5 µM (inactive); in the assay on COLO 205, 15.3 µM (inactive). In addition, the GI50 with A549 is 8.51 µM (inactive); in the assay with HCT-116 it was 4.92 µM (inactive); with CCRF-CEM, 6.61 µM (inactive); with U-251, 10.5 µM (inactive); in the assay on HOP-62, 4.22 µM (inactive); in the assay on NCI-H23, 28.8 µM (inactive). Further, the GI50 in the assay on MOLT-4 was 10.2 µM (inactive); with RXF 393, > 100 µM (inactive); in the assay with CAKI-1, 5.66 µM (inactive); in the assay on NCI/ADR-RES it was > 26 µM (inactive).

As to `CC(=O)OC(C(=O)O)C(OC(C)=O)C(OC(C)=O)C(OC(C)=O)C(=O)O` (stereo unspecified), the GI50 with KM12, in the assay with NCI-H522, with SF-268, in the assay on SK-OV-3, in the assay on COLO 205 and in the assay with A549 was > 100 µM (inactive) throughout. Moreover, the GI50 with HCT-116, in the assay on CCRF-CEM, with U-251, in the assay on MDA-MB-231, in the assay with HOP-62 and in the assay on NCI-H23 was > 100 µM (inactive) each time. The GI50 in the assay with MOLT-4, with CAKI-1, in the assay with IGROV-1 and with NCI/ADR-RES was > 100 µM (inactive) each time.

As to `Cc1c(OCc2ccccc2)c(=O)ccn1CCc1c[nH]c2ccccc12`, the GI50 in the assay on KM12 is 33.7 µM (inactive); with NCI-H522, 21.3 µM (inactive); with SF-268 it was 19.2 µM (inactive); in the assay with SK-OV-3, > 100 µM (inactive); in the assay with COLO 205, 16.4 µM (inactive); in the assay on A549 it was 36.6 µM (inactive). The GI50 in the assay with HCT-116 is 38.3 µM (inactive); in the assay on CCRF-CEM, 40.7 µM (inactive); in the assay with U-251 it was 29.6 µM (inactive); in the assay on MDA-MB-231, 34.1 µM (inactive); in the assay on HOP-62, > 100 µM (inactive); with NCI-H23 it was 37.6 µM (inactive). For the same molecule, the GI50 in the assay on MOLT-4 is 1.9 µM (inactive); with IGROV-1, 26.6 µM (inactive); in the assay with NCI/ADR-RES, 86.7 µM (inactive); in the assay with DU-145, 25.9 µM (inactive).

Take `C/C([O-])=C(/c1nc(-c2ccc([N+](=O)[O-])o2)no1)[n+]1cc(C)ccc1C`: the GI50 in the assay on KM12 was 5.82 µM (inactive); with OVCAR-4, 25.1 µM (inactive); with NCI-H522 it was 3.57 µM (inactive); with SF-268, 20.3 µM (inactive); in the assay with SK-OV-3, 35.6 µM (inactive); in the assay with COLO 205, 6.08 µM (inactive). Besides, the GI50 is 15 µM (inactive) with A549; 6.25 µM (inactive) in the assay on HCT-116; 1.53 µM (inactive) with CCRF-CEM; 8.11 µM (inactive) in the assay with U-251; 22.7 µM (inactive) with HOP-62; 12.1 µM (inactive) in the assay on NCI-H23. Besides, the GI50 with MOLT-4 was > 100 µM (inactive); in the assay with RXF 393, 18.7 µM (inactive); in the assay on CAKI-1 it was 14.3 µM (inactive); in the assay with IGROV-1, 29 µM (inactive); in the assay with NCI/ADR-RES, 35 µM (inactive); in the assay with SNB-75, 17.8 µM (inactive).

Regarding `COC(=O)C1=C(O)C(C(=O)OC)[C@]2(O)[C@@H](C(=O)OC)[C@H]1C[C@@H](c1ccccc1)[C@@H]2C(=O)OC` (stereo partly specified), the GI50 in the assay with KM12 was 11.7 µM (inactive); in the assay on NCI-H522 it was 6.71 µM (inactive); with SF-268 it was 1.96 µM (inactive); in the assay with SK-OV-3 it was 17.4 µM (inactive); in the assay on HCT-116 it was 6.98 µM (inactive); in the assay on CCRF-CEM it was 5.42 µM (inactive). Besides, the GI50 is 16.1 µM (inactive) in the assay on U-251; 16.1 µM (inactive) in the assay with MDA-MB-231; 20 µM (inactive) in the assay with HOP-62; 15.2 µM (inactive) in the assay with NCI-H23; 11.6 µM (inactive) with MOLT-4; 5.08 µM (inactive) in the assay on RXF 393. The GI50 is 16.9 µM (inactive) with SNB-75 and 11.9 µM (inactive) with DU-145.

As for `C#CC[C@@]12CC(=O)C[C@@H]1CCC1(C2)OCCO1.C#CC[C@]12CC(=O)CC[C@H]1CC(=O)C2`, the GI50 in the assay with KM12, in the assay on OVCAR-4, with NCI-H522, in the assay on SF-268, in the assay on SK-OV-3 and in the assay on COLO 205 was > 100 µM (inactive) throughout. For the same molecule, the GI50 is > 100 µM (inactive) with A549; > 100 µM (inactive) in the assay on HCT-116; 60.1 µM (inactive) in the assay with CCRF-CEM; > 100 µM (inactive) with U-251; > 100 µM (inactive) in the assay on HOP-62; > 100 µM (inactive) with NCI-H23. For the same molecule, the GI50 was 34.4 µM (inactive) in the assay with MOLT-4; > 100 µM (inactive) with RXF 393; > 100 µM (inactive) with IGROV-1; > 100 µM (inactive) in the assay on NCI/ADR-RES; 97.7 µM (inactive) with SNB-75.

Turning to `Cc1c(N=NN(C)C)cc[n+]([O-])c1C`, the GI50 in the assay on KM12, in the assay on OVCAR-4, with NCI-H522, in the assay with SF-268, in the assay on SK-OV-3 and in the assay on COLO 205 was > 100 µM (inactive) throughout. For the same molecule, the GI50 with A549, in the assay with HCT-116, with CCRF-CEM, with U-251, with HOP-62 and with NCI-H23 was > 100 µM (inactive) in each case. Besides, the GI50 in the assay on MOLT-4 is > 100 µM (inactive); in the assay with RXF 393, > 100 µM (inactive); in the assay with CAKI-1 it was > 100 µM (inactive); in the assay with IGROV-1 it was > 100 µM (inactive); in the assay with NCI/ADR-RES, > 100 µM (inactive); in the assay on SNB-75, > 49.7 µM (inactive).

As for `CSc1nc2c(ncn2C2OCC(O)C(O)C2O)c(=O)n1C` (stereo unspecified), the GI50 in the assay with KM12, with OVCAR-4, with NCI-H522, with SF-268, in the assay on SK-OV-3 and in the assay with COLO 205 was > 100 µM (inactive) throughout. In addition, the GI50 in the assay with A549, with HCT-116, with CCRF-CEM, with U-251, with HOP-62 and with NCI-H23 was > 100 µM (inactive) throughout. For the same molecule, the GI50 in the assay with MOLT-4 was > 100 µM (inactive); in the assay on RXF 393, > 100 µM (inactive); in the assay with IGROV-1, > 100 µM (inactive); in the assay with NCI/ADR-RES, > 100 µM (inactive); in the assay with SNB-75, 73.6 µM (inactive).

Turning to `Nc1nnc(N)n1NC(=O)C(=O)Nc1ccc([N+](=O)[O-])cc1`, the GI50 in the assay with KM12, with OVCAR-4, with NCI-H522, in the assay on SF-268, in the assay on SK-OV-3 and in the assay on COLO 205 was > 100 µM (inactive) each time. Further, the GI50 with A549, in the assay with HCT-116, in the assay with CCRF-CEM, in the assay with U-251, in the assay with HOP-62 and in the assay on NCI-H23 was > 100 µM (inactive) in each case. Besides, the GI50 in the assay with MOLT-4, in the assay with RXF 393, in the assay on CAKI-1, in the assay on IGROV-1 and in the assay with SNB-75 was > 100 µM (inactive) each time.
